Where two headings read alike, the source gives them in different places.
Key:
[1] = target: T1, HDAC1 (Homo sapiens, UniProt Q13547); test: HDAC-1 immunocapture fluorescent biochemical assay (HeLa lysate); details: HDAC1 immunocaptured from HeLa extract
T1 construct: cell extract containing HDAC (HeLa in these experiments); endogenous in cells; host or cells: HeLa cell extract
Experimental: The HDAC-1 assay represents a novel immunocapture assay procedure. […] The HDAC1 is captured on a protein A coated plate using HDAC1 specific antibody, and is then allowed to react with the substrate.
This assay in performed in four general steps. In the first step (FIG. 1A), cell extract containing HDAC (HeLa in these experiments) is incubated with (cell signaling) rabbit polyclonal HDAC1 antibody (rabbit IgG antibody is used for background control) to allow binding of the enzyme to the antibody. In the second step, the complexed mixture is added to the protein A covered plate which captures the antibody. In the third step, after washing away unbound proteins, substrate and inhibitor are added and deacetylation is allowed to occur. […] The plate is then read on either Victor or Perkin Elmer Envision system using Umbilliferone filter set.
• A. HeLa extract complexed with HDAC1 antibody working solution (in DPBS):
Compound working solution (in HDAC buffer):
Compounds diluted in assay buffer at 2× Screening concentration. • D. Activator solution:
Trypsin (10 mg/mL) diluted 1:1600 in assay buffer containing 4 μM TSA.
Complexing of extract with antibody was carried out at room temperature for 60 min with rocking. Binding of complexes onto protein A plate was carried out at room temperature for 60 min in 50 μL. Reaction was carried out in […], in the protein A plate for 60 minutes at 37° C. 40 μL of the reaction was moved into white ½ area plate for activation and reading.
• 1. Set PIERCE Protein A plate to block with 150 μof 5% BSA in TB ST for 60 min at room temperature. • 2. […] Dilute complexes further ([…]) by addition of 3.5 mL of PBS (final total volume of 5 mL). • 4. Wash blocked protein A plate prior to complex addition with TBST. • 5. Add 50 μl of diluted complexes to Protein A plate and incubate for 60 min at room temperature. • 6. Wash plate with TB ST. • 7. Add 25 μl of diluted compounds (in HDAC buffer) to each well and incubate for 10 min at room temperature. • 8. […] Move 40 μl of reaction to a white plate and add 20 μl of activator/developer solution, mix thoroughly. • 10. Read plate.

[2] = target: T2, HDAC2 (Homo sapiens, UniProt Q92769); test: HDAC isoform assay, HDAC2; type: biochemical; details: substrate KI-177; read-out: HDAC2, IC50, ELISA (KI-177)
T2 construct: purchased BioMol

[3] = target: T3, HDAC3 (Homo sapiens, UniProt O15379); test: HDAC isoform assay, HDAC3; type: biochemical; details: substrate KI-177; read-out: HDAC3, IC50, ELISA (KI-177)
T3 construct: purchased BioMol
Experimental: The assay measures the ability of a small molecule to inhibit deacetylation of the substrate. Activator reagent recognizes the substrate only if the lysine has been deacetylated.
This homogeneous assay in performed in the same well without washing steps. The HDAC source, nuclear HeLa extract, is incubated with substrate in the presence of an inhibitor compound. At the end of the reaction time, activator solution, containing Trypsin and TSA, is added to stop the deacetylation reaction, and cleave the amino-coumarin from the deacetylated substrate. The plate is then read on either a Perkin Elmer Victor or Envision system using Umbilliferone filter set. […] The signal is directly proportional to the activity of HDACs and compound inhibition of HDAC is monitored by a decrease in signal.

[4] = target: T4, HDAC4 (Homo sapiens, UniProt P56524); test: HDAC isoform assay, HDAC4; type: biochemical; details: substrate KI-177; read-out: HDAC4, IC50, ELISA (KI-177)
T4 construct: purchased BioMol

[5] = target: T5, HDAC6 (Homo sapiens, UniProt Q9UBN7); test: HDAC isoform assay, HDAC6
T5 sequence (Q9UBN7 1-1215): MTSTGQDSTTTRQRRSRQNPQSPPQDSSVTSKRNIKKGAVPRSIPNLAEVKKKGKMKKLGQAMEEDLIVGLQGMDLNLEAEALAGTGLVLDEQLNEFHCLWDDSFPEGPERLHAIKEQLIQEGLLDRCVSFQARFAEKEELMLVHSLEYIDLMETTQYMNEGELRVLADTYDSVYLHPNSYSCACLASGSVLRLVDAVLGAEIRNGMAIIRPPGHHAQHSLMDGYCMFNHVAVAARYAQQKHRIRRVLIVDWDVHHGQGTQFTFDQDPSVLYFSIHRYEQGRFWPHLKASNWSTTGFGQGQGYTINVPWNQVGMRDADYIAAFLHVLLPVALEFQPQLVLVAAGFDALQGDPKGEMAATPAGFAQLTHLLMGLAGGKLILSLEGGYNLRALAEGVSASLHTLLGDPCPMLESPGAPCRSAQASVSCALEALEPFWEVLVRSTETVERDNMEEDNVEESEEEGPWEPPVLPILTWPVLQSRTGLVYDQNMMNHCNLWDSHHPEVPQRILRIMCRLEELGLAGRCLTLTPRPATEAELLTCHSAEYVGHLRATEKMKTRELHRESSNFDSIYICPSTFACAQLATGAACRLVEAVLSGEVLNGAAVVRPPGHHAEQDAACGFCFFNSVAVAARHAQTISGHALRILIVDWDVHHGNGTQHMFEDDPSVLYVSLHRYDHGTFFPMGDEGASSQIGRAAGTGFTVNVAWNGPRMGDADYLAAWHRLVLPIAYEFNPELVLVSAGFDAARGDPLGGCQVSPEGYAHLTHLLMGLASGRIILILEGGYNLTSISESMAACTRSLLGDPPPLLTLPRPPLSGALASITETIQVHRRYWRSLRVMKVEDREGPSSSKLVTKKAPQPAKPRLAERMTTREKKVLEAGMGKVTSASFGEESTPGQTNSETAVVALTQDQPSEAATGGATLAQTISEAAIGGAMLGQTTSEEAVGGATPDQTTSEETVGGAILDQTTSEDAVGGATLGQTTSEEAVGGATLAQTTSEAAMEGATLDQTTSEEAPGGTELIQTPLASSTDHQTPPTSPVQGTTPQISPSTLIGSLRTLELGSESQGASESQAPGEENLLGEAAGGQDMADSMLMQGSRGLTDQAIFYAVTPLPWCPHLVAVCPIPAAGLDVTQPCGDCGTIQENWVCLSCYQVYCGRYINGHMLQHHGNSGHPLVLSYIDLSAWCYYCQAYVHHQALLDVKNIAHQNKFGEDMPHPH

[6] = target: T6, HDAC9 (Homo sapiens, UniProt Q9UKV0); test: HDAC isoform assay, HDAC9; type: biochemical
T6 construct: purchased BioMol

[7] = system: HCT-116 cells; test: MTS cell viability assay, HCT-116; type: cell-based; details: Homo sapiens
Experimental: (§1) The MTS cell viability assay was used to determine the potency of proliferation inhibitor with. MTS measures mitochondrial dehydrogenase activity and serves as surrogate readout for the number of viable cells.
(§2) For MTS assay, cells were plated in 96-well plates at 2000 cells per well and incubated in the presence of compounds for 72 hr. MTS was added to each well as instructed by manufacture (Promega) and plates were incubated for 4 h at 37° C. The absorbance of each well was measured at 490 nm using a microplate reader.

[8] = system: HH cells; test: MTS cell viability assay, HH; type: cell-based; details: Homo sapiens, 72 hr, read-out: HH, IG50, MTS
Experimental: The MTS cell viability assay was used to determine the potency of proliferation inhibitor with. MTS measures mitochondrial dehydrogenase activity and serves as surrogate readout for the number of viable cells. The protocol described below is based upon the “CellTiter 96 Aqueous Non-Radioactive Cell Proliferation Assay” sold by Promega (Technical Bulletin No. 169).
as §2

[9] = system: Hut78 cells; test: MTS cell viability assay, Hut78; type: cell-based; details: Homo sapiens; Hut78, 72 hr; read-out: Hut78, IG50, MTS
Experimental: as §1, §2

[10] = system: MJ cells; test: MTS cell viability assay, MJ; type: cell-based; details: 72 hr, read-out: MJ, IG50, MTS
Experimental: as §1, §2

[11] = target: HDAC5 (Homo sapiens, UniProt Q9UQL6); test: HDAC isoform assay, HDAC5
[12] = target: T7, HDAC8 (Homo sapiens, UniProt Q9BY41); test: HDAC isoform assay, HDAC8
T7 sequence (Q9BY41 1-377): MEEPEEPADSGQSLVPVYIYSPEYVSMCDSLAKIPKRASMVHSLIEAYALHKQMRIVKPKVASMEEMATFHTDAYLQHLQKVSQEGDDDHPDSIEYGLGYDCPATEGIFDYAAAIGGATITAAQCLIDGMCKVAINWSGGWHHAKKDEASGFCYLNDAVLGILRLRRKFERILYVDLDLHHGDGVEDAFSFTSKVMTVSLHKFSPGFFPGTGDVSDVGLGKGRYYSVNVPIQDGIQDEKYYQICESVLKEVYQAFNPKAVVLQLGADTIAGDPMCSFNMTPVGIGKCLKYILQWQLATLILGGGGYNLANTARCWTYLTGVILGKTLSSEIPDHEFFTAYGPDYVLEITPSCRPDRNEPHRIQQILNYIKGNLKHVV

[13] = system: HDACs (nuclear HeLa extract); test: pan-HDAC fluorescent biochemical assay with nuclear HeLa extract; details: HDAC peptide substrate, 60 min at 37° C.
Experimental: Substrate was synthesized in house. Stocks were prepared in DMSO (10 mM).
Compound working solution: Compounds dissolved in assay buffer at 4× Screening concentration. Activator solution: Trypsin (10 mg/mL) diluted 1:1600 in Assay Buffer containing 4 μM TSA.
Total reaction Volume: 40 μL
Reaction was allowed to run for 60 minutes at 37° C.
2. Combine in a white ½ area well plate: 10 μl of 4× compound (or buffer), 15 μl of substrate and 15 μl of HeLa extract. Mix well
3. Incubate at 37° C. for 60 min.
4. Prepare Activator solution. Dilute Trypsin 1:1600 in Assay Buffer+4μM TSA. 20 μl is needed per assay point.
5. Add 20 μl of prepared activator solution and mix thoroughly.
The hydroxamic-acid based compounds of the present invention were tested in the biochemical assay for their pan-HDAC inhibitory activity.

T4 sequence (P56524 whole entry, canonical isoform): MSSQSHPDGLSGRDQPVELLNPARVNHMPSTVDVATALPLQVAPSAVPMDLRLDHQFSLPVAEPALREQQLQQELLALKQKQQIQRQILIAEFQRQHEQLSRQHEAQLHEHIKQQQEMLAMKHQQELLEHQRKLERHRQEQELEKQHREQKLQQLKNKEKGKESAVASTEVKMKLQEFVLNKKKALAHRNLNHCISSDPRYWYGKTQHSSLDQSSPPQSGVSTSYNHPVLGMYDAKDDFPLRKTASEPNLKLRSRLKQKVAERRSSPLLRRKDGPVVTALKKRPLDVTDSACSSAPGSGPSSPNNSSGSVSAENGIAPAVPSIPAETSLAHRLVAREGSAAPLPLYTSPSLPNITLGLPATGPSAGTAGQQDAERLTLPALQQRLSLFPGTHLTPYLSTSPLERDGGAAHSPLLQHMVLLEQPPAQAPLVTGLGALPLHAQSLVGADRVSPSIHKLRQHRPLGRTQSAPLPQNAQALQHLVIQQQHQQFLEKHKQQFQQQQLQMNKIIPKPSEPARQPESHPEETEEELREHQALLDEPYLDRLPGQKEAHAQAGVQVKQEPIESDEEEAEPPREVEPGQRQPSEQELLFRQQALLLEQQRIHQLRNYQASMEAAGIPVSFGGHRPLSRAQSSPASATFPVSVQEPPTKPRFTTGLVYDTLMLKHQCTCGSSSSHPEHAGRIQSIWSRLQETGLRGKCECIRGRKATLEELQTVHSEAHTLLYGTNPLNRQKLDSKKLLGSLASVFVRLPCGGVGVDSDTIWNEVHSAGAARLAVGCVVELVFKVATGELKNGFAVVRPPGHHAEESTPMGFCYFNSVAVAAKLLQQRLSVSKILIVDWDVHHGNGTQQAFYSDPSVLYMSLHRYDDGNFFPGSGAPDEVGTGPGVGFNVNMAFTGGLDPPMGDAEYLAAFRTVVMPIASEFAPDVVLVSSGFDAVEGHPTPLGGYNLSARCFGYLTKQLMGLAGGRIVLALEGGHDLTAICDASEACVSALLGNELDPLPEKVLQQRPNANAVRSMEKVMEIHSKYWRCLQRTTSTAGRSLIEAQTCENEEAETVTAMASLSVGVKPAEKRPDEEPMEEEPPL
T3 sequence (O15379 whole entry, canonical isoform): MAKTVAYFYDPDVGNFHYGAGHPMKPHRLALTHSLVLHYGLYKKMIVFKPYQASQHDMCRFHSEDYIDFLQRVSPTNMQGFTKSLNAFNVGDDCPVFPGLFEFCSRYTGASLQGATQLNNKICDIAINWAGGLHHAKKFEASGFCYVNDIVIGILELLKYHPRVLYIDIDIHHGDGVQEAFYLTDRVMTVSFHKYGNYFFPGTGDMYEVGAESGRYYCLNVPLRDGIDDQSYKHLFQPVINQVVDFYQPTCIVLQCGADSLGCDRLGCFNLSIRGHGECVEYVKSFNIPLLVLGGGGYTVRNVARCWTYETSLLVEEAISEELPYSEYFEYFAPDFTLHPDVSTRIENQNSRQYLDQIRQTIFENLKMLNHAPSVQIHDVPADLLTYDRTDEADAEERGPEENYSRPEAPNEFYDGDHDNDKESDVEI
T3 sequence (O75376 395-489 partner limits assumed): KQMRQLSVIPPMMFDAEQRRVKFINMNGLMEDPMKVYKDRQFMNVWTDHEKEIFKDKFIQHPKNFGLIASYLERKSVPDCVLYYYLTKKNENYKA
T1 sequence (Q13547 whole entry): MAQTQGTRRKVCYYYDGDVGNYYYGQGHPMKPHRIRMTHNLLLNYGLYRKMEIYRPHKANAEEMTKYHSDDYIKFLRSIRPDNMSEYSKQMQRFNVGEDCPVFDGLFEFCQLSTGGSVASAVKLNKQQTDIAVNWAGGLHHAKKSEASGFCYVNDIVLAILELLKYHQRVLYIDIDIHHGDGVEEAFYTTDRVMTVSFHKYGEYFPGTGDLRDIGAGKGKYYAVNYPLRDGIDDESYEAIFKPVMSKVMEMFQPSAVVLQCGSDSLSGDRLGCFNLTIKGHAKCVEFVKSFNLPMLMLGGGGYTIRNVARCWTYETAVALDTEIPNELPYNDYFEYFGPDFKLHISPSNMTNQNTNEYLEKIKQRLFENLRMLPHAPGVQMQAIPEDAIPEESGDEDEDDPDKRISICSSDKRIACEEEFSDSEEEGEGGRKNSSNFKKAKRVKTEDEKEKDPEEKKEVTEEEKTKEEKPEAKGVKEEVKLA
T2 sequence (Q92769 whole entry, canonical isoform): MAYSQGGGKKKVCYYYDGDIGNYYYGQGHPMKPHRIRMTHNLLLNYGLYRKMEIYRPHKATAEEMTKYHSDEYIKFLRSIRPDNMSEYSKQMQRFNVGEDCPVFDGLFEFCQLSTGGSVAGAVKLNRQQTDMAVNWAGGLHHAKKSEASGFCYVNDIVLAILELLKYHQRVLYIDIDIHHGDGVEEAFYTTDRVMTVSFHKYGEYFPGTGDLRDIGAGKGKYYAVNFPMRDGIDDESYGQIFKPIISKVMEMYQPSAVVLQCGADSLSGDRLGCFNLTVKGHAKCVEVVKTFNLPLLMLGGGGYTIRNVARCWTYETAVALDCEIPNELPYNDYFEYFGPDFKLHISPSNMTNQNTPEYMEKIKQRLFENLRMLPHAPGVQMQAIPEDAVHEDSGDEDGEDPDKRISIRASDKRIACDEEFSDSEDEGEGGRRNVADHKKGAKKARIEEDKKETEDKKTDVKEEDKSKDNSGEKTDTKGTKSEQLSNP
HDAC5, sequence (Q9UQL6 whole entry, canonical isoform): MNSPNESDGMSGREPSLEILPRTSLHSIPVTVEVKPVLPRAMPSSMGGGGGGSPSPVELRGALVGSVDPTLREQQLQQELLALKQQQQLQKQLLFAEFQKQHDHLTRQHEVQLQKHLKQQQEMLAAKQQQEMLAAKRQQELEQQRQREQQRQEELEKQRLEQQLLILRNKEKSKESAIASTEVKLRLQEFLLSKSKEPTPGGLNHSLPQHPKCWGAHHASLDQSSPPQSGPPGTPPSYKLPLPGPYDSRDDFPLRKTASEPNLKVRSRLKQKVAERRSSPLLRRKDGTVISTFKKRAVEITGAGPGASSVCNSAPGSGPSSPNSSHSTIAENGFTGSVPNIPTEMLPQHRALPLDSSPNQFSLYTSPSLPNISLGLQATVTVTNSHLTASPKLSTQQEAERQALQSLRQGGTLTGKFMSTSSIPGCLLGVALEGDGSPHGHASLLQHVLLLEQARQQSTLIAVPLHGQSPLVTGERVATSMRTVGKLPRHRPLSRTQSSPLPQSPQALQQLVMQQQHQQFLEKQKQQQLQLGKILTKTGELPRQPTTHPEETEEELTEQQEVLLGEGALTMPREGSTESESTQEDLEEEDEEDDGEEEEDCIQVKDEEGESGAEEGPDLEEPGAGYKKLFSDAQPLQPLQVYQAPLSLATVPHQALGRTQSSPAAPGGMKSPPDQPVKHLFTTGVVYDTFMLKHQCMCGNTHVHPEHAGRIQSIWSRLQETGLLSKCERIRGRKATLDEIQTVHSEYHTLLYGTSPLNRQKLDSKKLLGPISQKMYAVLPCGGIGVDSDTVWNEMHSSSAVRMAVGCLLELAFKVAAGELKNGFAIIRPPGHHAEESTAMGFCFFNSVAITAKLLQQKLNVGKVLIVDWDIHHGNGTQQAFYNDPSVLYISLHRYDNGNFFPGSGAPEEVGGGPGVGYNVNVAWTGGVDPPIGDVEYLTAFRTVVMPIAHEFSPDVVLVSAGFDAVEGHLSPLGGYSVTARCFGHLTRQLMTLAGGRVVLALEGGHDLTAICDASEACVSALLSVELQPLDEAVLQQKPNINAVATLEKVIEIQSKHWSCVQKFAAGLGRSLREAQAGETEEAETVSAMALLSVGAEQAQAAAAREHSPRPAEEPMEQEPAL
T6 sequence (Q9UKV0 whole entry, canonical isoform): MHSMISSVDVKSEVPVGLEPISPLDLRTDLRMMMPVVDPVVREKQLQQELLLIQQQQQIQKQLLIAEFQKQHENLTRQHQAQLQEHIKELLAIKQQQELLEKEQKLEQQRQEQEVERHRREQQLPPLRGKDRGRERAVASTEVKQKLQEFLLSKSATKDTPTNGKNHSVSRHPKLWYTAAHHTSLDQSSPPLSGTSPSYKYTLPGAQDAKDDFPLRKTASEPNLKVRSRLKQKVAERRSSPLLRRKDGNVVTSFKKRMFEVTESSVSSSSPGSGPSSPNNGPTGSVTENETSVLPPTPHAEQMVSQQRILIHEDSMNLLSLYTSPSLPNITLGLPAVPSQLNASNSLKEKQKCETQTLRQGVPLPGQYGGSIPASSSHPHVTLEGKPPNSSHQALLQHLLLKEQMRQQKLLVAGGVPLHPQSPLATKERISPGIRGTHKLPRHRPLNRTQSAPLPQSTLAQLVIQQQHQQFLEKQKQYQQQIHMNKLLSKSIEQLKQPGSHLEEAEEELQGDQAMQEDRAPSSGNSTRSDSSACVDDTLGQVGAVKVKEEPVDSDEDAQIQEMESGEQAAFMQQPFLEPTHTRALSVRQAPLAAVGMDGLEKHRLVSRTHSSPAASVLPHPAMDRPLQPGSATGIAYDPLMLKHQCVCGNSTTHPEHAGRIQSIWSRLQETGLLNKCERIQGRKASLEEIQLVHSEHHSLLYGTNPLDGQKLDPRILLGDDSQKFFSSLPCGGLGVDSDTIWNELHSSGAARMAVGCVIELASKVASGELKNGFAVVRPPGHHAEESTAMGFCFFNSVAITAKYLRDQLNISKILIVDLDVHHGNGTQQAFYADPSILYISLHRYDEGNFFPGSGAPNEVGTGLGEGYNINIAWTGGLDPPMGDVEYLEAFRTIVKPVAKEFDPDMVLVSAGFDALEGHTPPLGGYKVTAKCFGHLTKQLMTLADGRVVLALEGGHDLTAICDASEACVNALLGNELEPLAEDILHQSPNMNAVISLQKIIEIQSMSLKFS

What does the source list for O=C(CCCCCCNC(=O)c1cc2cccc3c2n1CCC3)NO [compound 23, N-[7-(hydroxyamino)-7-oxoheptyl]-5,6-dihydro-4H-pyrrolo[3,2,1-ij]quinoline-2-carboxamide]?
IC50 [1]: 17 nM; IC50 [2]: 3000 nM; IC50 [3]: 37 nM; IC50 [4]: 28 nM; melting point: 160 to 161 °C; IC50 [5]: 43 nM

Which results are given for O=C(CCC1CCN(C(=O)c2cn3c4c(cccc24)CCC3)CC1)NO [compound 18, 3-[1-(5,6-dihydro-4H-pyrrolo[3,2,1-ij]quinolin-1-ylcarbonyl)piperidin-4-yl]-N-hydroxypropanamide]?
IC50 [1]: 35.7 nM; IC50 [2]: 10000 nM; IC50 [3]: 29.8 nM; IC50 [4]: 69.1 nM; IC50 [6]: 535 nM; IC50 ([7]; HCT-116, 72 hr, read-out: HCT-116, IG50, MTS): 1.14 µM; IC50 [8]: 186 nM; IC50 [9]: 987 nM; IC50 [10]: 390 nM; melting point: 110 to 113 °C; IC50 [11]: 91.5 nM; IC50 [5]: 144 nM; IC50 [12]: 4970 nM

With O=C(NO)c1ccc(CNC(=O)c2cn3c4c(cccc24)CCC3)cc1 [compound 6, N-{4-[(hydroxyamino)carbonyl]benzyl}-5,6-dihydro-4H-pyrrolo[3,2,1-ij]quinoline-1-carboxamide] as the compound, how does the IC50 [2] read?
Its IC50 is 3000 nM.

And the IC50 [3]?
The IC50 was 26.5 nM.

And the IC50 [13]?
The IC50 was 70.8 nM.

And the IC50 ([7]; HCT-116, 72 h, read-out: HCT-116, IG50, MTS (uM))?
The IC50 was 0.457 µM.

What about the IC50 [8] of the same compound?
Its IC50 is 91 nM.

And the IC50 [10]?
Its IC50 is 580 nM.

What about the melting point of the same compound?
The melting point was 191 to 192 °C.

And the IC50 [11]?
Its IC50 is 36.9 nM.

And the IC50 [5]?
The IC50 was 7.82 nM.

With CC(C)(C)OC(=O)N1CCn2cc(C(=O)NCc3ccc(C(=O)NO)cc3)c3cccc(c32)C1 [compound 15, tert-butyl 7-{[4-(hydroxycarbamoyl)benzyl]carbamoyl}-3,4-dihydro[1,4]diazepino[6,7,1-hi]indole-2(1H)-carboxylate] as the compound, how does the IC50 [1] read?
The IC50 was 492 nM.

And the IC50 [2]?
Its IC50 is 10000 nM.

What about the IC50 [3] of the same compound?
Its IC50 is 518 nM.

And the IC50 [4]?
Its IC50 is 791 nM.

And the IC50 [13]?
Its IC50 is 505 nM.

And the IC50 [5]?
The IC50 was 203 nM.

What about the IC50 [12] of the same compound?
Its IC50 is 3450 nM.

Source: patent US20100261710A1, “HDAC Inhibitors” (ARQULE, INC., priority 2007, published 2010)
